Reference: PubChem BioAssay AID1845196 (Molecular Pharmacology Branch, DTP, NCI, 2023)
“And” between values parts separate entries of the source, which are not always exact repeats. Equal entries are not always repeated.

Test system: 292921-168-R tumor spheroid viability
Experiment: Anticancer human tumor 292921-168-R patient-derived pancreatic carcinoma cell line growth inhibition
Conditions: spheroids with HUVEC and MSC; for viability, T/C: stronger effect = lower value
Excerpt: Multicellular complex tumor spheroid response to DNA repair inhibitors in combination with DNA-damaging drugs
This study explores the anticancer activities of DNA-damaging drugs and inhibitors of DNA damage repair, both as single agents and in combinations. Complex tumor spheroids comprised of malignant cells, endothelial cells and mesenchymal stem cells served as an in vitro model for human solid tumors. This model system incorporates physiologically relevant features and patient-derived or established malignant cell lines with clinically relevant genetic alterations from many tumor types. Twenty-six patient-derived or established malignant cell lines were evaluated representing sarcoma, melanoma, small cell lung cancer (SCLC), non-small cell lung cancer (NSCLC), as well as bladder, ovarian and pancreatic cancers. The concentration ranges selected for each drug and investigational agent were based upon clinically achievable concentrations if the clinical Cmax of the agent was known.
Compounds. The drugs and compounds olaparib (NSC753686), talazoparib (NSC767125), berzosertib (NSC777718), elimusertib (NSC800525), nedisertib (NSC802822), VX-984 (NSC792969), AZD-1390 (NSC803789), temozolomide (NSC362856), topotecan (NSC609699), trabectedin (NSC813783), staurosporine (NSC755774), and gemcitabine (NSC613327) were obtained from the National Cancer Institute (NCI) Developmental Therapeutics Program Chemical Repository. The FDA-approved anticancer drug set is available from the Developmental Therapeutics Program at https://dtp.cancer.gov/organization/dscb/obtaining/available_plates.htm. […] The stock solutions were prepared in dimethyl sulfoxide (DMSO, Sigma-Aldrich, St. Louis, MO, cat. D2650) at 400-fold the tested concentration and stored at -70 degrees C. Prior to their use, the stock solutions were diluted in fresh medium and the final DMSO concentration in the assay was 0.25% (v/v). All drugs and investigational agents were tested over a range starting from a high concentration at or near the clinical Cmax and decreasing in half-log increments. If the clinical Cmax for an agent had not been determined, the highest concentration tested was 10 microM.
Cell Lines. The patient-derived cancer cell (PDC) lines: 156681-154-R-J1-PDC, 283228-195-R-J1-PDC, 287954-098-R-J1-PDC, 292921-168-R-J2-PDC, 349418-098-R-PDC, 425362-245-T-J1-PDC, 556581-035-R-J1-PDC, and BL0293-F563-PDC were received from the NCI Patient-Derived Models Repository (PDMR, https://pdmr.cancer.gov). The established cell lines HS-SY-2 (RRID:CVCL_8719), MPNST, and SYO-1 (RRID:CVCL_7146) were obtained from the Sloan Kettering Institute. The alveolar soft parts sarcoma cell line ASPS-1 (RRID:CVCL_S738) was established at the NCI and grown from internal seed stocks. The following established cell lines were purchased from the American Type Culture Collection (ATCC, Manassas, VA): G-401 (ATCC, cat. CRL-1441, RRID:CVCL_0270), SW982 (ATCC, cat. HTB-93, RRID:CVCL_1734), VA-ES-BJ (ATCC, cat. CRL-2138, RRID:CVCL_1785), NCI-H719 (ATCC, cat. CRL-5837, RRID:CVCL_1582), NCI-H196 (ATCC, cat. CRL-5823, RRID:CVCL_1509), NCI-H841 (ATCC, cat. CRL-5845, RRID:CVCL_1595), NCI-H1618 (ATCC, cat. CRL-5879, RRID:CVCL_1480), NCI-H1876 (ATCC, cat. CRL-5902, RRID:CVCL_1503), DMS 114 (ATCC, cat. CRL-2066; RRID:CVCL_1174), NCI-H211 (ATCC, cat. CRL-5824; RRID:CVCL_1529), and SW 1271 (ATCC, cat. CRL-2177, RRID:CVCL_1716). The small cell lung cancer cell line COR-L88 was purchased from Sigma-Aldrich (cat. 92031917-1VL, RRID:CVCL_1141). The non-small cell lung cancer cell lines NCI-H226 (RRID:CVCL_1544) and NCI-H322M (RRID:CVCL_1557) were established at the NCI and grown from internal seed stocks. Pooled donor human umbilical vein endothelial cells (HUVEC, Lonza, cat. CC-2519) and human mesenchymal stem cells (hMSC, Lonza, cat. PT-2501) were purchased from Lonza (Walkersville, MD).
Cell Culture. All cells were maintained in an incubator at 37 degrees C and 5% CO2 with 95% humidity. […]

[1] = compound alone, run of 10/17/2019
[2] = compound alone, run of 10/25/2019
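Also: spheroids exposed to compounds for 7 days.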

Row | Structure (SMILES) | viability, T/C (compound 0.0316 µM) | viability, T/C (compound 0.1 µM) | viability, T/C (compound 0.316 µM) | viability, T/C (compound 1 µM) | viability, T/C (compound 3.16 µM) | viability, T/C (compound 10 µM) | IC50 (curve of compound) | viability, T/C (compound 0.00949 µM) | viability, T/C (compound 0.03 µM) | viability, T/C (compound 0.0949 µM) | viability, T/C (compound 0.3 µM) | viability, T/C (compound 0.949 µM) | viability, T/C (compound 3 µM) | further results
1 | CC(C)n1c(=O)n(C)c2cnc3cc(F)c(-c4ccc(OCCCN5CCCCC5)nc4)cc3c21 | 93.7% and 95.7% and 101% | 92.2% and 101% and 92.6% | 92.8% and 93.5% and 87.8% | 92.4% and 91.1% and 84% | 70.3% and 70.5% and 69.1% | 29.2% and 26.8% and 32.8% | 5.58 µM and 5.44 µM and 5.67 µM | – | – | – | – | – | – | –
2 | CC1COCCN1c1cc(-c2ccnn2C)c2ccnc(-c3ccn[nH]3)c2n1 (stereo not drawn) | 26.3% and 36.1% and 39.6% | 14.2% and 20.1% and 22% | 11.9% and 13.8% and 14.4% | 13.8% and 13.7% (2×) | 14.8% and 14.5% and 14.9% | 16.8% and 16% and 16.7% | < 0.0316 µM | – | – | – | – | – | – | –
3 | CC[C@@]1(O)C(=O)OCc2c1cc1n(c2=O)Cc2cc3c(CN(C)C)c(O)ccc3nc2-1 | – | – | – | – | – | – | – | 77.4% [middle of 10 runs] | 36.8% [middle of 10 runs] | 12.2% [middle of 10 runs] | 4.45% [middle of 10 runs] | – | – | viability, T/C (compound 0.003 µM): 94.9% [middle of 10 runs]; IC50 [1]: 19.4 nM [middle of 5 runs]; IC50 [2]: 22.6 nM [middle of 4 runs]
4 | CNCc1ccc(-c2cc(-c3nc(-c4ccc(S(=O)(=O)C(C)C)cc4)cnc3N)on2)cc1 | – | – | – | – | – | – | 0.307 µM and 0.226 µM and 0.236 µM | 101% and 106% and 104% | 101% and 94.1% and 95.1% | 79.2% and 80% and 91.3% | 49.7% and 37.8% and 38.7% | 26.5% and 25.3% and 20.8% | 11.9% (2×) and 13.2% | –
5 | COc1cc(C)[nH]c(=O)c1CN1CCc2c(Cl)cc(C(OC)C3COC3)c(Cl)c2C1=O (stereo not drawn) | 108% and 97.3% and 113% | 112% and 106% and 113% | 115% and 92.9% and 89.7% | 109% and 95.4% and 97.2% | 90.3% and 89.2% and 90.4% | 101% and 89.8% and 75.1% | > 10 µM | – | – | – | – | – | – | –
6 | COc1cc2c(cc1O)CCNC21CSC2c3c(OC(C)=O)c(C)c4c(c3C(COC1=O)N1C(O)C3Cc5cc(C)c(OC)c(O)c5C(C21)N3C)OCO4 (stereo not drawn) | – | – | – | – | – | – | – | – | – | – | – | – | – | viability, T/C (compound 94.9 pM): 101% [middle of 10 runs]; viability, T/C (compound 0.0003 µM): 41.8% [middle of 10 runs]; viability, T/C (compound 0.000949 µM): 3.57% [middle of 10 runs]; viability, T/C (compound 0.003 µM): 0.16% [middle of 5 runs]; IC50 [2]: 0.259 nM [middle of 10 runs]
7 | COc1ccc([C@@H](O)c2cc(-c3ncnc4cc(N5CCOCC5)ccc34)c(F)cc2Cl)nn1 | 103% and 105% and 96.1% | 99.4% and 97.3% and 101% | 91.3% and 87.4% and 87.8% | 57.4% and 56.3% and 64.4% | 37% and 34.3% and 35.8% | 20.6% and 19% and 21% | 1.57 µM and 1.45 µM and 1.78 µM | – | – | – | – | – | – | –
8 | Cc1cc(C)c(CNC(=O)c2cc(-c3ccc(CN4CCOCC4)cc3)cc3c2cnn3C2CCCC2)c(=O)[nH]1 | 103% and 102% and 97.1% | 101% and 104% and 88.9% | 110% and 97.8% and 101% | 106% and 103% and 98.5% | 102% and 88.8% and 103% | 75.6% and 68.8% and 63.9% | > 10 µM | – | – | – | – | – | – | –
9 | Cc1sc2c(c1C)C(c1ccc(Cl)cc1)=NC(CC(=O)Nc1ccc(O)cc1)c1nnc(C)n1-2 (stereo not drawn) | – | – | – | – | – | – | 2.95 µM and 1.85 µM and > 3 µM | 119% (2×) and 110% | 124% and 90% and 120% | 132% and 104% and 113% | 114% and 102% and 124% | 92.9% and 71.4% and 81.5% | 49.3% and 34.5% and 57.9% | –
10 | Cn1ncnc1[C@H]1c2n[nH]c(=O)c3cc(F)cc(c23)N[C@@H]1c1ccc(F)cc1 | – | – | – | – | – | – | 0.661 µM and 0.537 µM and 0.692 µM | 101% and 87.5% and 95.8% | 93.7% and 83.1% and 93% | 87.9% and 81.8% and 80.5% | 68.6% and 62.7% and 63.2% | 41.3% and 36.9% and 46% | 14% (2×) and 11.2% | –
11 | Cn1nnc2c(C(N)=O)ncn2c1=O | – | – | – | 94.3% [middle of 10 runs] | 95.5% [middle of 10 runs] | 94.8% [middle of 10 runs] | – | – | – | – | – | – | – | viability, T/C (compound 31.6 µM): 90.8% [middle of 10 runs]; viability, T/C (compound 100 µM): 85.8% [middle of 10 runs]; IC50 [1]: > 100 µM
12 | O=C(c1cc(Cc2n[nH]c(=O)c3ccccc23)ccc1F)N1CCN(C(=O)C2CC2)CC1 | – | – | – | – | – | – | 19.2 µM and 15.7 µM and 16.8 µM | – | – | 91.5% and 96.1% and 103% | 102% and 99.1% and 96% | 91.7% and 100% and 98.5% | 87.8% and 89.6% and 92.7% | viability, T/C (compound 9.49 µM): 66.9% and 61.2% and 64.2%; viability, T/C (compound 30 µM): 39.4% and 35.8% and 35.6%
13 | [2H]c1nc(C)nc([2H])c1-c1cc(NC[C@@H](C)c2cccc3c(C(=O)NC)ccnc23)ncn1 | 106% and 103% (2×) | 104% and 93.4% and 89.7% | 104% and 100% and 97.8% | 115% and 99.2% and 93.3% | 113% and 101% and 96.8% | 95.7% and 91.2% and 95.8% | > 10 µM | – | – | – | – | – | – | –
